Experimental data from PubChem BioAssay (NCI).
Several values for one entry are separate records, joined by “and”; a condition that tells them apart may be missing. Equal values may be shown once.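 Test compounds were applied to cells in 96-well plates for 48 hours at 5 doses. GI50 marks 50% less growth. The concentration for full growth arrest is given as TGI.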

How the values were obtained:
Test in all cases: NCI tumour cell line growth inhibition, 48 h
K-562 leukemia = system: K-562 leukemia
LOX IMVI melanoma = system: LOX IMVI melanoma
KM12 colon = system: KM12 colon
SK-MEL-28 melanoma = system: SK-MEL-28 melanoma
OVCAR-8 ovarian = system: OVCAR-8 ovarian
EKVX NSCLC = system: EKVX NSCLC
SNB-75 CNS = system: SNB-75 CNS
786-0 renal = system: 786-0 renal
UACC-62 melanoma = system: UACC-62 melanoma
RPMI-8226 leukemia = system: RPMI-8226 leukemia

SMILES | TGI (K-562 leukemia) [µM] | TGI (LOX IMVI melanoma) | TGI (KM12 colon) | TGI (SK-MEL-28 melanoma) | TGI (OVCAR-8 ovarian) | TGI (EKVX NSCLC) | TGI (SNB-75 CNS) [µM] | TGI (786-0 renal) | TGI (UACC-62 melanoma) | TGI (RPMI-8226 leukemia) [µM] | GI50 (K-562 leukemia) | GI50 (LOX IMVI melanoma) | GI50 (KM12 colon) | GI50 (SK-MEL-28 melanoma) | GI50 (OVCAR-8 ovarian) | GI50 (EKVX NSCLC) | GI50 (SNB-75 CNS) [µM] | GI50 (786-0 renal) | GI50 (UACC-62 melanoma) | GI50 (RPMI-8226 leukemia)
Cc1cccc(NC(=O)c2cccc([N+](=O)[O-])c2O)c1C | > 31.6 | > 72.8 µM | > 69.4 µM | > 100 µM | > 100 µM | > 100 µM | 81.1 | > 100 µM | > 100 µM | > 87.3 | – | – | – | – | – | – | – | – | – | –
Cc1cc(N2CCOCC2)cc2[nH]c(-c3c(NC[C@@H](O)c4cccc(Cl)c4)cc[nH]c3=O)nc12 | 13 | 2.19 µM | 4.46 µM | 13.5 µM | 14.7 µM | 29.1 µM | 2.47 | 4.02 µM | 12.6 µM | > 100 | 2.94 µM | 0.387 µM | 0.0161 µM | 2.15 µM | 3.23 µM | 1.62 µM | 1.15 | 1.21 µM | 2.36 µM | 3.22 µM
COc1ccccc1NC(=O)CC(=O)N/N=C/c1ccc(N(CCC#N)S(=O)(=O)c2ccccc2)cc1 | > 100 | > 100 µM | > 100 µM | > 100 µM | > 100 µM | > 100 µM | > 100 | > 100 µM | > 100 µM | > 100 | – | – | – | – | – | – | – | – | – | –
COc1cccc(NC(=O)/C(Cc2nc3ccccc3nc2C)=N/NC(=O)C[n+]2ccccc2)c1 | > 100 | > 100 µM | > 100 µM | > 100 µM | > 100 µM | > 100 µM | > 100 | > 100 µM | > 100 µM | 68.1 | – | – | – | – | – | – | – | – | – | –
COc1ccc(OCC(=O)O)c(C(=O)CCC(=O)O)c1 | > 100 | > 100 µM | > 100 µM | > 100 µM | > 100 µM | > 100 µM | > 100 | > 100 µM | > 10 µM | > 100 | – | – | – | – | – | – | – | – | – | –
Cc1cnc(C(=O)NNc2nc3sc4c(c3c(=O)n2C)C(C)CCC4)cn1 (centres undefined) | > 100 | 1.75 µM | 2.16 µM | 4.6 µM | 11.9 µM | 9.13 µM | 5.78 | 5.52 µM | 2.24 µM | > 20 | 0.433 µM | 0.304 µM | 0.362 µM | 0.537 µM | 0.366 µM | 0.292 µM | 0.56 | 0.511 µM | 0.346 µM | 0.357 µM
C=C1CC2(OC1=O)C(=O)Nc1ccccc12 (centres undefined) | 10 | 3.03 µM | 27.2 µM | 4.26 µM | 11 µM | 26.7 µM | 28.1 | 6.64 µM | 6.76 µM | 5.94 | 1.88 µM | 1.56 µM | 10.4 µM | 1.99 µM | 2.91 µM | 13.5 µM | 11 | 2.39 µM | 2.23 µM | 1.8 µM
COc1cc(Nc2ncc(F)c(Nc3ccc4c(n3)N(COP(=O)(O)O)C(=O)C(C)(C)O4)n2)cc(OC)c1OC | > 100 | 2.99 µM and 2.46 µM | 15.4 µM and > 10 µM | 21 µM and > 10 µM | 16.5 µM and > 10 µM | 13.7 µM and > 10 µM | 1.52 | 6.53 µM and 2.86 µM | 12 µM and > 10 µM | > 31.3 | 5.3 µM and 3.41 µM | 1.38 µM and 1.09 µM | 0.498 µM and 0.409 µM | 3.69 µM and 5.05 µM | 3.33 µM and 3.07 µM | 2.19 µM and 1.93 µM | 0.319 | 1.32 µM and 0.858 µM | 2.1 µM and 1.64 µM | 3.55 µM and 4.34 µM
Cc1ncc(C(=O)Nc2ccc(CN3CCN(C)CC3)c(C(F)(F)F)c2)cc1C#Cc1cnc(N)cc1C#N | 3.21 | 0.8 µM | 1.98 µM | 1.69 µM | 5.35 µM | 3.38 µM | 3.44 | 0.835 µM | 0.645 µM | 3.5 | 0.00167 µM | 0.0709 µM | 0.00758 µM | 0.0584 µM | 1.3 µM | 1.12 µM | 1.21 | 0.38 µM | 0.0518 µM | 0.338 µM
CSc1nc(SC)c2c(CO)c(Br)n(Cc3ccccc3)c2n1 | – | > 100 µM | > 100 µM | > 100 µM | 44.1 µM | > 100 µM | 29.9 | 37.6 µM | 41.9 µM | > 100 | – | – | – | – | – | – | – | – | – | –
N#CC1CCCCCCCCCCC(=O)N(CCCl)C1=O (centres undefined) | > 100 | > 100 µM | > 100 µM | > 100 µM | > 100 µM | > 100 µM | > 100 | > 100 µM | > 100 µM | > 100 | – | – | – | – | – | – | – | – | – | –
